From patent publication EP4567035A1, “NOVEL COMPOUND AS HYPOXIA-INDUCIBLE FACTOR 1(HIF-1) INHIBITOR OR VASCULAR ENDOTHELIAL GROWTH FACTOR (VEGF) INHIBITOR, AND PHARMACEUTICAL COMPOSITION COMPRISING SAME” (Nextgen Bioscience Co., Ltd., priority 2022, dated 2024)
Structures can show the parent of a compound that is named as a salt.

Target: T1, HIF-1α (Homo sapiens, UniProt Q16665)
T1 construct: endogenous in cells; host or cells: ARPE-19 (ATCC CRL-2302)
Experiment: Analysis of HIF-1α protein expression (Western blot) in ARPE-19 cells under mixed hypoxic condition
Type: cell-based
Details: mixed hypoxic condition (1% oxygen + CoCl2) for 1 hour, concentration range at which HIF-1α expression is reduced by 50% vs untreated control, read-out: IC50 HIF-1α Hypoxia (1 hour)
Description: ARPE-19 cells (Human retinal pigment epithelial cells, ATCC CRL-2302) were cultured in DMEM/F12 (LM002-08, Welgene) medium containing 10% fetal bovine serum (FBS, 16000-044, Gibco) in an incubator at 37°C with 5% carbon dioxide. When the cells grew sufficiently, they were cultured in experimental culture dishes for protein isolation and medium supernatant acquisition.
Cells were detached from the culture dish using TrypLE™ Express (Gibco). After centrifugation at 1000 rpm for 3 minutes, the supernatant was removed. The cells were counted and seeded into new culture dishes. Normoxic conditions were maintained by culturing the cells in a 37°C incubator with 5% carbon dioxide, and hypoxic conditions were maintained by culturing the cells in a hypoxic incubator with 1% oxygen, 5% carbon dioxide, and 94% nitrogen gas.
In a disease of macular degeneration, hypoxia is a very important condition, and since the expression of downstream genes is regulated by HIF-1α, a transcription factor that is stabilized in hypoxic conditions, the following experiment was conducted to confirm this.
Mixed hypoxic condition was used for HIF-1α stability experiments, in which hypoxia was induced with 1% oxygen and the stability of HIF-1α was enhanced by treatment with cobalt chloride (CoCl2).
The compounds of each Example were diluted to 0.1 nM, 1 nM, 3 nM, 10 nM, 30 nM, 100 nM, 300 nM, 1 µM, and 10 µM in DMEM/F12 medium without fetal bovine serum, pretreated for 16 hours or 2 hours, and cultured for 1 hour or 24 hours in a mixed hypoxic condition. The cell medium was discarded, and protein lysates were obtained by rapidly treating with protein lysis buffer (RIPA Lysis and Extraction buffer, Thermo Fisher Scientific). LDS (4X Bolt ™ LDS Sample buffer) and reducing agent (10X Bolt ™ Sample Reducing Agent) were added together to the protein lysate, and heated at 70°C for 10 minutes. The lysate was separated by electrophoresis on a 4-12% Bis-Tris gel, transferred to a PVDF membrane, and blocked with 3% BSA (Albumin, Bovine, Fraction V, MPbio). The membrane was incubated overnight at 4°C with a mixture of anti-HIF-1α (ab179483, abcam) and anti-b-actin (MA515739, Invitrogen) antibodies at a ratio of 1:4000. The following day, the membrane was treated with a peroxidase-conjugated secondary antibody for 1 hour at room temperature, and the target protein was expressed using an ECL solution (Clarity ™ Western ECL substrate, Bio-rad) and quantified.
Based on the results of the expression level of HIF-1α in cells treated with compounds diluted from 10 µM to 0.1 nM, the concentration range of the compound at which the expression level of HIF-1α was reduced by 50% or less compared to the untreated control group was derived.

T1 sequence (Q16665 whole entry): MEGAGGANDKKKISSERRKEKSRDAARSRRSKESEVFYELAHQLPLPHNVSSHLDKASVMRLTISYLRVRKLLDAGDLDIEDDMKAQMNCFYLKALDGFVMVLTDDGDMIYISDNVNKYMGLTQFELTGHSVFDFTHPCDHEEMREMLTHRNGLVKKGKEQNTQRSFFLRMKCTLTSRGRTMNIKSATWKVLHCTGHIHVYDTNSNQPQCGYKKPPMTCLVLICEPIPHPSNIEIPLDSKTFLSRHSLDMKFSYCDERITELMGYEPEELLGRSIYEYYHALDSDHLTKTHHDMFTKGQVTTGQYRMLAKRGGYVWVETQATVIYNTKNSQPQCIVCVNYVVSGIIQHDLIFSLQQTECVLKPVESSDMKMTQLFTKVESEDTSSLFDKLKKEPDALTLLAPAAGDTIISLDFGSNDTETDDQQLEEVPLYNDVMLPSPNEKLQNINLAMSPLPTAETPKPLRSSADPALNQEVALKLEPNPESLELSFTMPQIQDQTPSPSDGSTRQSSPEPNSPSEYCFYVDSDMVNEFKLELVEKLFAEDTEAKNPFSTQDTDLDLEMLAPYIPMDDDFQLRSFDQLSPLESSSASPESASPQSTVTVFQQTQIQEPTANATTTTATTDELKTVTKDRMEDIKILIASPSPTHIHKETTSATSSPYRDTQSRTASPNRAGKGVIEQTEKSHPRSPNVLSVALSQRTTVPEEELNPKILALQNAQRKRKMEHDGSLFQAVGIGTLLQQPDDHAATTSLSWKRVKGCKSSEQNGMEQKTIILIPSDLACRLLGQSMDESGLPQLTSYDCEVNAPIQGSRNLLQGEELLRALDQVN

Row | SMILES | DC50
1 | Cn1cc(-c2cccc(C3(NC(=O)c4ncnc5nc(C6CCCC6)[nH]c45)CC3)c2)cn1 [Example 6, 8-Cyclopentyl-N-(1-(3-(1-methyl-1H-pyrazol-4-yl)phenyl)cyclopropyl)-7H-purine-6-carboxamide] | 100 to 1000 nM
2 | O=C(NCc1cc(F)cc(Br)c1)c1ncnc2nc(C3CCCC3)[nH]c12 [Example 14, N-(3-bromo-5-fluorobenzyl)-8-cyclopentyl-7H-purine-6-carboxamide] | 100 to 1000 nM
3 | C[Si](C)(C)CCOCn1c(C2CCCC2)nc2ncnc(C(=O)NCc3cc(F)cc(-c4cnn(-c5cccc(C#N)c5)c4)c3)c21 [Example 22, N-(3-(1-(3-cyanophenyl)-1H-pyrazol-4-yl)-5-fluorobenzyl)-8-cyclopentyl-7-((2-(trimethylsilyl)ethoxy)methyl)-7H-purine-6-carboxamide] | 100 to 1000 nM
4 | Cn1c(C2CCCC2)nc2ncnc(C(=O)NCc3cc(F)cc(-c4cnn(-c5ccc(F)cc5)c4)c3)c21 [Example 55, 8-Cyclopentyl-N-(3-fluoro-5-(1-(4-fluorophenyl)-1H-pyrazol-4-yl)benzyl)-7-methyl-7H-purine-6-carboxamide] | 100 to 1000 nM
5 | O=C(NCc1cc(F)cc(-c2cnn(-c3ccc(F)cc3)c2)c1)c1nc(Cl)nc2nc(C3CCCC3)[nH]c12 [Example 61, 2-Chloro-8-cyclopentyl-N-(3-fluoro-5-(1-(4-fluorophenyl)-1H-pyrazol-4-yl)benzyl)-7H-purine-6-carboxamide] | 100 to 1000 nM
6 | Cn1cc(-c2cc(F)cc(CNC(=O)c3ncnc4nc([C@@H]5CCCN5)[nH]c34)c2)cn1 [Example 62, (S)-N-(3-fluoro-5-(1-methyl-1H-pyrazol-4-yl)benzyl)-8-(pyrrolidin-2-yl)-7H-purine-6-carboxamide hydrochloride] | 1000 to 10000 nM
7 | Cn1cc(-c2cc(F)cc(CNC(=O)c3ncnc4nc([C@H]5CCCN5C(=O)OCc5ccccc5)[nH]c34)c2)cn1 [Example 64, Benzyl (R)-2-(6-((3-fluoro-5-(1-methyl-1H-pyrazol-4-yl)benzyl)carbamoyl)-7H-purin-8-yl)pyrrolidine-1-carboxylate] | 1000 to 10000 nM
8 | Cn1cc(-c2cc(F)cc(CNC(=O)c3ncnc4nc([C@H]5CCCN5)[nH]c34)c2)cn1 [Example 65, (R)-N-(3-fluoro-5-(1-methyl-1H-pyrazol-4-yl)benzyl)-8-(pyrrolidin-2-yl)-7H-purine-6-carboxamide hydrochloride] | 1000 to 10000 nM
9 | CC(C)N1CCC[C@H]1c1nc2ncnc(C(=O)NCc3cc(F)cc(-c4cnn(C)c4)c3)c2[nH]1 [Example 67, (S)-N-(3-fluoro-5-(1-methyl-1H-pyrazol-4-yl)benzyl)-8-(1-isopropylpyrrolidin-2-yl)-7H-purine-6-carboxamide] | 1000 to 10000 nM
10 | CN1CCC[C@@H]1c1nc2ncnc(C(=O)NCc3cccc(F)c3)c2[nH]1 [Example 68, (R)-N-(3-fluorobenzyl)-8-(1-methylpyrrolidin-2-yl)-7H-purine-6-carboxamide] | 1000 to 10000 nM

Results, then the compound that gave them:

Row | DC50 | SMILES
11 | 100 to 1000 nM | Cn1cc(-c2cc(F)cc(CNC(=O)c3ncnc4nc(C5CCN(C(=O)OCc6ccccc6)CC5)[nH]c34)c2)cn1 [Example 69, Benzyl 4-(6-((3-fluoro-5-(1-methyl-1H-pyrazol-4-yl)benzyl)carbamoyl)-7H-purin-8-yl)piperidine-1-carboxylate]
12 | 100 to 1000 nM | Cn1cc(-c2cc(F)cc(CNC(=O)c3ncnc4nc(C5CCNCC5)[nH]c34)c2)cn1 [Example 70, N-(3-fluoro-5-(1-methyl-1H-pyrazol-4-yl)benzyl)-8-(piperidin-4-yl)-7H-purine-6-carboxamide hydrochloride]
13 | 1000 to 10000 nM | CN1CCC(c2nc3ncnc(C(=O)NCc4cc(F)cc(-c5cnn(C)c5)c4)c3[nH]2)CC1 [Example 71, N-(3-fluoro-5-(1-methyl-1H-pyrazol-4-yl)benzyl)-8-(1-methylpiperidin-4-yl)-7H-purine-6-carboxamide]
14 | 1000 to 10000 nM | Cn1cc(-c2cc(F)cc(CNC(=O)c3ncnc4nc(CNC(=O)OCc5ccccc5)[nH]c34)c2)cn1 [Example 72, Benzyl ((6-((3-fluoro-5-(1-methyl-1H-pyrazol-4-yl)benzyl)carbamoyl)-7H-purin-8-yl)methyl)carbamate]
15 | 1000 to 10000 nM | Cn1cc(-c2cc(F)cc(CNC(=O)c3ncnc4nc(CN)[nH]c34)c2)cn1 [Example 73, 8-(Aminomethyl)-N-(3-fluoro-5-(1-methyl-1H-pyrazol-4-yl)benzyl)-7H-purine-6-carboxamide]
16 | 1000 to 10000 nM | Cn1cc(-c2cc(F)cc(CNC(=O)c3ncnc4nc[nH]c34)c2)cn1 [Example 74, N-(3-fluoro-5-(1-methyl-1H-pyrazol-4-yl)benzyl)-7H-purine-6-carboxamide]
17 | 100 to 1000 nM | Cn1cc(-c2cc(F)cc(CNC(=O)c3ncnc4nc(C5CCN(C(=O)OCc6ccccc6)C5)[nH]c34)c2)cn1 (stereo not drawn) [Example 75, Benzyl 3-(6-((3-fluoro-5-(1-methyl-1H-pyrazol-4-yl)benzyl)carbamoyl)-7H-purin-8-yl)pyrrolidine-1-carboxylate]
18 | 1000 to 10000 nM | Cn1cc(-c2cc(F)cc(CNC(=O)c3ncnc4nc(C5CCNC5)[nH]c34)c2)cn1 (stereo not drawn) [Example 76, N-(3-fluoro-5-(1-methyl-1H-pyrazol-4-yl)benzyl)-8-(pyrrolidin-3-yl)-7H-purine-6-carboxamide hydrochloride]
19 | 1000 to 10000 nM | CN1CCC(c2nc3ncnc(C(=O)NCc4cc(F)cc(-c5cnn(C)c5)c4)c3[nH]2)C1 (stereo not drawn) [Example 79, N-(3-fluoro-5-(1-methyl-1H-pyrazol-4-yl)benzyl)-8-(1-methylpyrrolidin-3-yl)-7H-purine-6-carboxamide]

Same assay, conditions: values marked * in the table, mixed hypoxic condition (1% oxygen + CoCl2) for 24 hours, concentration range at which HIF-1α expression is reduced by 50% vs untreated control, read-out: IC50 HIF-1α, Hypoxia(24h)

Row | DC50 | SMILES
20 | 100 to 1000 nM | O=C(NCc1cc(F)cc(-c2cnn(-c3ccc(F)cc3)c2)c1)c1ncnc2nc(C3CCOC3)[nH]c12 (stereo not drawn) [Example 89, N-(3-fluoro-5-(1-(4-fluorophenyl)-1H-pyrazol-4-yl)benzyl)-8-(tetrahydrofuran-3-yl)-7H-purine-6-carboxamide]
21 | 100 to 1000 nM | C[C@@H](NC(=O)c1ncnc2nc(C3CCCC3)[nH]c12)c1cccc(-c2cnn(-c3ccc(F)cc3)c2)c1 [Example 90, (R)-8-cyclopentyl-N-(1-(3-(1-(4-fluorophenyl)-1H-pyrazol-4-yl)phenyl)ethyl)-7H-purine-6-carboxamide]
22 | 1000 to 10000 nM | C[C@H](NC(=O)c1ncnc2nc(C3CCCC3)[nH]c12)c1cccc(-c2cnn(-c3ccc(F)cc3)c2)c1 [Example 91, (S)-8-cyclopentyl-N-(1-(3-(1-(4-fluorophenyl)-1H-pyrazol-4-yl)phenyl)ethyl)-7H-purine-6-carboxamide]
23 | 100 to 1000 nM | O=C(NCCc1cccc(-c2cnn(-c3ccc(F)cc3)c2)c1)c1ncnc2nc(C3CCCC3)[nH]c12 [Example 94, 8-Cyclopentyl-N-(3-(1-(4-fluorophenyl)-1H-pyrazol-4-yl)phenethyl)-7H-purine-6-carboxamide]
24 | 100 to 1000 nM | O=C(NCc1ccc(F)c(-c2cnn(-c3ccc(F)cc3)c2)c1)c1ncnc2nc(C3CCCC3)[nH]c12 [Example 96, 8-Cyclopentyl-N-(4-fluoro-3-(1-(4-fluorophenyl)-1H-pyrazol-4-yl)benzyl)-7H-purine-6-carboxamide]
